Reference: patent US20230312550A1, “N-(2-(4-CYANOTHIAZOLIDIN-3-YL)-2-OXOETHYL)-QUINOLINE-4-CARBOXAMIDES” (AstraZeneca AB, priority 2020, published 2023)
≈ marks a conversion by molar mass, not a printed value.

Tests used:
[1] = Metabolic stability in human hepatocytes (hHep); assay type: in vitro ADME; details: n = 1 or geometric mean of n = 2
hFAP (M39-A757) = hFAP (M39-A757) (Homo sapiens (Human), UniProt Q12884); assay: hFAP binding assay (surface plasmon resonance); details: SPR, 20° C.; for hFAP Binding assay k(off) / hFAP Binding assay k(on): single cycle kinetics; for Kd: n = 1 or geometric mean n = 2-4
[2] = Metabolic stability in rat hepatocytes (rHep); details: n = 1 or geometric mean of n = 2-3
[3] = Metabolic stability in human liver microsomes (HLM); details: human
Description: Metabolic stability in HLM was measured as described in J Comput Aided Mol Des 2015, 29, 795.

[4] = target: Prolyl endopeptidase, Prolyl Oligopeptidase (hPREP) (Homo sapiens (Human), UniProt P48147); assay: hPrep inhibition assay; assay type: biochemical; details: hPREP 0.6 nM, Z-Gly-Pro-amino-methylcoumarin 50 μM; read-out: PREP IC50
Method in brief: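 Fluorogenic read-out (340 nm excitation, 460 nm emission) after 20 min at rt, using 50 μM final Z-Gly-Pro-aminomethylcoumarin and 0.6 nM final enzyme, following 15 min compound preincubation. Buffer pH 7.5 with glutathione and Triton X-100. IC50 via one-site model on % inhibition vs log concentration.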

[5] = target: human Fibroblast activation protein alpha (hFAP) (Homo sapiens (Human), UniProt Q12884); assay: hFAP inhibition assay (tight binders); assay type: biochemical; details: Ala-Pro-AMC 20 μM, n = 1 or geometric mean n = 2-6; note: hFAP 2.4 pM
Description: The plates were read on a PHERAstar® reader with excitation 340 nm and emission 460 nm. Data were analyzed in Genedata Screener®. IC50 values were determined by plotting % inhibition versus log compound concentration and using a one site dose response model.

Caco-2 cell permeability = details: human
Description: Caco-2 cell permeability was measured as described in Mol Pharm 2017, 14, 1601.

Kinetic solubility = details: kinetic from dmso stock
Description: Kinetic solubility was measured as described in Comput Aided Mol Des 2015, 29, 795.

FAP = FAP (Homo sapiens (Human), UniProt Q12884); assay: hFAP inhibition assay; assay type: biochemical; details: hFAP […], Ala-Pro-AMC 20 μM; n = 1 or geometric mean n = 2-3
Method in brief: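 Compounds (10-point, 3-fold dilutions from 50 μM top) were preincubated 15 min at rt in the dark with 0.48 nM hFAP in pH 7.4 Tris/NaCl/Chaps buffer. Reaction was started with substrate (40 μM solution) and ran 30 min at rt. Read by fluorescence (340/460 nm); IC50 from one-site fit.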

[6] = HLM CLint, n = 1 or average of n = 2-3
[7] = Solubility, kinetic solubility, n = 1 or average of n = 2-3

Chain of FAP (Q12884 38-760): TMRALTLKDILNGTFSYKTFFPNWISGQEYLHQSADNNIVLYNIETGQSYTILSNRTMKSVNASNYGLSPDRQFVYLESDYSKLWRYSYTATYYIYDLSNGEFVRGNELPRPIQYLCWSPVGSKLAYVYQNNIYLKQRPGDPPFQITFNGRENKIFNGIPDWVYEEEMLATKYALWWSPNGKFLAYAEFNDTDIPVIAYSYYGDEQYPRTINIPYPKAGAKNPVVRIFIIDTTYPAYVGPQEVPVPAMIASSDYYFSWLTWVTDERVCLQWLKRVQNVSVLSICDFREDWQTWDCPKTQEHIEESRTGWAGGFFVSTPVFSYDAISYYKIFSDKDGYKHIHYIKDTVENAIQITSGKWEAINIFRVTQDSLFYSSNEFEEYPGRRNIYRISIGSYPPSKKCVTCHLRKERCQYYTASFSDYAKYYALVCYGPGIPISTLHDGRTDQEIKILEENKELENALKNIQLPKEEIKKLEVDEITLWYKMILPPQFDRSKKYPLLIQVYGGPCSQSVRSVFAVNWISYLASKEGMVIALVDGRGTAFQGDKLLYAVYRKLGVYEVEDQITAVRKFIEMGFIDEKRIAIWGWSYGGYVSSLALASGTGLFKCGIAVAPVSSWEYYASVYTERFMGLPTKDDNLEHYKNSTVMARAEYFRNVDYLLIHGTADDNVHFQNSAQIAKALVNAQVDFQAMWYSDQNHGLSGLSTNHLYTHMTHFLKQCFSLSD
Chain of human Fibroblast activation protein alpha (hFAP) (Q12884 38-760): as above
Chain of Prolyl endopeptidase, Prolyl Oligopeptidase (hPREP) (P48147 whole entry): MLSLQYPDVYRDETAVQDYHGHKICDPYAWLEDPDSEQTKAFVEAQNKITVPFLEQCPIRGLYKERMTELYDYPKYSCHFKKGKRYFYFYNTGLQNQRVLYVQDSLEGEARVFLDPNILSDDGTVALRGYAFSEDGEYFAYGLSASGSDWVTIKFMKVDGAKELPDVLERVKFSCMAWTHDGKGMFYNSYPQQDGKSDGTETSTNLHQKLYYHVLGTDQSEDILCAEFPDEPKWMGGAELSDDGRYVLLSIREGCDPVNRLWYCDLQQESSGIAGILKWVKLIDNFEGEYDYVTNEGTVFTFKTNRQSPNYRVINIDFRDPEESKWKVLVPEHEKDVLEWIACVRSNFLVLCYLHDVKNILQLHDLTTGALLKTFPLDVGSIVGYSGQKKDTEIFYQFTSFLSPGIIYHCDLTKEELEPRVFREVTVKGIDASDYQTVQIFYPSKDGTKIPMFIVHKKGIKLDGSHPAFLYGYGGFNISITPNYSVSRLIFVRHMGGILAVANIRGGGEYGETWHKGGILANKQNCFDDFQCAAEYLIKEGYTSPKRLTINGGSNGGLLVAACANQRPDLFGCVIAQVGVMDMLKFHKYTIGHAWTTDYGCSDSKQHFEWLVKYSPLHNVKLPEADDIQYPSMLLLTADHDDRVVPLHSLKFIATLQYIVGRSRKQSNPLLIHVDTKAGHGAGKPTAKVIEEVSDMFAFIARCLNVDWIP
Chain of hFAP (M39-A757) (Q12884 39-757): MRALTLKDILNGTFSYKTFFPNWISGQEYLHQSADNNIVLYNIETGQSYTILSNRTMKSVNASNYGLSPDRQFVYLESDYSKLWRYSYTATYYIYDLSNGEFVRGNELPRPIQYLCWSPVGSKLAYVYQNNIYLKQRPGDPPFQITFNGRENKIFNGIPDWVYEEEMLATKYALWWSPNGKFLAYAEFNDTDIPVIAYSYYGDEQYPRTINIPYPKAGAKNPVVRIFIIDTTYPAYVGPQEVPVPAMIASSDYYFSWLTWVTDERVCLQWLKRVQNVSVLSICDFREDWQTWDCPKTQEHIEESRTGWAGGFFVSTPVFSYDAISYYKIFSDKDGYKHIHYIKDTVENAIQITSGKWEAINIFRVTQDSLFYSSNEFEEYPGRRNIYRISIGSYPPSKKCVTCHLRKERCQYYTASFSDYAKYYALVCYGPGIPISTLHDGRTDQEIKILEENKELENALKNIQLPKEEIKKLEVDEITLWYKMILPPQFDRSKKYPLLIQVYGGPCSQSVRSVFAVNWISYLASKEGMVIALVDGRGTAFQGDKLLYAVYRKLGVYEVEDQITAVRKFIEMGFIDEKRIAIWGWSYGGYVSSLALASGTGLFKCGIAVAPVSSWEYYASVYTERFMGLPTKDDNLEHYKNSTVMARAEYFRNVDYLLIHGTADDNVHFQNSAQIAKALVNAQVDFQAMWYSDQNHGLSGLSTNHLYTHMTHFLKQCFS

| SMILES | hHep CLint [1] | hFAP Binding assay k(off) (hFAP (M39-A757)) | hFAP Binding assay k(on) (hFAP (M39-A757)) | Kd (hFAP (M39-A757)) | rHep CLint [2] | microsomal CLint [3, 6] | IC50 [4] | IC50 [5] | Papp A→B (Caco-2 cell permeability) | Papp B→A (Caco-2 cell permeability) | efflux ratio (Caco-2 cell permeability) | solubility (Kinetic solubility; [7]) | IC50 (FAP) | microsomal CLint [3] | Papp (Caco-2 cell permeability) | solubility (Kinetic solubility) |
| --- | --- | --- | --- | --- | --- | --- | --- | --- | --- | --- | --- | --- | --- | --- | --- | --- |
| CS(=O)(=O)C[C@H]1CN(c2ccc3nccc(C(=O)NCC(=O)N4CSC[C@H]4C#N)c3c2)CCO1 [Example 92, N-(2-((R)-4-Cyanothiazolidin-3-yl)-2-oxoethyl)-6-((R)-2-((methylsulfonyl)-methyl)morpholino)quinoline-4-carboxamide] | <1 μL/min/1E6 | 0.00011 s⁻¹ | 2200000 M⁻¹ s⁻¹ | 0.047 nM | 1.7 μL/min/1E6 | 14 µL/min/mg | 2400 nM | 0.074 nM | 0.12 ×10⁻⁶ cm/s | 4.2 ×10⁻⁶ cm/s | 35 | 810 µM (≈ 408 µg/mL) | – | – | – | – |
| N#C[C@@H]1CSCN1C(=O)CNC(=O)c1ccnc2ccc(N3CC(F)C3)cc12 [Example 21, (R)—N-(2-(4-Cyanothiazolidin-3-yl)-2-oxoethyl)-6-(3-fluoroazetidin-1-yl)quinoline-4-carboxamide] | <1 μL/min/1E6 | 0.0002 s⁻¹ | 3000000 M⁻¹ s⁻¹ | 0.066 nM | 17 μL/min/1E6 | 15 µL/min/mg | 93 nM | 0.11 nM | 3.7 ×10⁻⁶ cm/s | 23 ×10⁻⁶ cm/s | 6.2 | 390 µM (≈ 156 µg/mL) | 0.29 nM | – | – | – |
| CC1(C)COC12CN(c1ccc3nccc(C(=O)NCC(=O)N4CSC[C@H]4C#N)c3c1)C2 [Example 18, (R)—N-(2-(4-Cyanothiazolidin-3-yl)-2-oxoethyl)-6-(3,3-dimethyl-1-oxa-6-azaspiro[3.3]heptan-6-yl)quinoline-4-carboxamide] | 3.7 μL/min/1E6 | 0.000059 s⁻¹ | 1400000 M⁻¹ s⁻¹ | 0.068 nM | 6 μL/min/1E6 | – | 570 nM | 0.047 nM | 0.9 ×10⁻⁶ cm/s | 31 ×10⁻⁶ cm/s | 34 | – | 0.19 nM | 22 µL/min/mg | 13 ×10⁻⁶ cm/s | 93 µM (≈ 42 µg/mL) |
| COCC1(C)CN(c2ccc3nccc(C(=O)NCC(=O)N4CSC[C@H]4C#N)c3c2)C1 [Example 29, (R)—N-(2-(4-Cyanothiazolidin-3-yl)-2-oxoethyl)-6-(3-(methoxymethyl)-3-methylazetidin-1-yl)quinoline-4-carboxamide] | <1 μL/min/1E6 | 0.000061 s⁻¹ | 1100000 M⁻¹ s⁻¹ | 0.057 nM | 4.5 μL/min/1E6 | 18 µL/min/mg | 500 nM | 0.055 nM | 3.7 ×10⁻⁶ cm/s | 37 ×10⁻⁶ cm/s | 10 | 560 µM (≈ 246 µg/mL) | 0.13 nM | – | 26 ×10⁻⁶ cm/s | – |
| C[C@@H]1COC[C@H](C)N1c1ccc2nccc(C(=O)NCC(=O)N3CSC[C@H]3C#N)c2c1 [Example 90, N-(2-((R)-4-Cyanothiazolidin-3-yl)-2-oxoethyl)-6-((3S,5R)-3,5-dimethyl-morpholino)quinoline-4-carboxamide] | 4.6 μL/min/1E6 | 0.00010 s⁻¹ | 480000 M⁻¹ s⁻¹ | 0.38 nM | 20 μL/min/1E6 | 100 µL/min/mg | 1100 nM | 0.35 nM | 1.2 ×10⁻⁶ cm/s | 19 ×10⁻⁶ cm/s | 16 | > 1000 µM | 0.75 nM | – | – | – |
| CC1(C)Cc2c(-c3ccc4nccc(C(=O)NCC(=O)N5CSC[C@H]5C#N)c4c3)cnn2C1 [Example 123, (R)—N-(2-(4-Cyanothiazolidin-3-yl)-2-oxoethyl)-6-(5,5-dimethyl-5,6-dihydro-4H-pyrrolo[1,2-b]pyrazol-3-yl)quinoline-4-carboxamide] | 1.6 μL/min/1E6 | 0.00042 s⁻¹ | 3000000 M⁻¹ s⁻¹ | 0.14 nM | 7.1 μL/min/1E6 | 32 µL/min/mg | 740 nM | 0.083 nM | 0.17 ×10⁻⁶ cm/s | 29 ×10⁻⁶ cm/s | 170 | 280 µM (≈ 129 µg/mL) | 0.25 nM | – | 14 ×10⁻⁶ cm/s | – |
| N#C[C@@H]1CSCN1C(=O)CNC(=O)c1ccnc2ccc(N3CCCCC3)cc12 [Example 32, (R)—N-(2-(4-Cyanothiazolidin-3-yl)-2-oxoethyl)-6-(piperidin-1-yl)quinoline-4-carboxamide] | 4.1 μL/min/1E6 | 0.000029 s⁻¹ | 1300000 M⁻¹ s⁻¹ | 0.022 nM | 19 μL/min/1E6 | 40 µL/min/mg | 450 nM | 0.16 nM | 8.7 ×10⁻⁶ cm/s | 28 ×10⁻⁶ cm/s | 3.3 | 240 µM (≈ 98.3 µg/mL) | 0.3 nM | – | – | – |
| CO[C@@H]1CN(c2ccc3nccc(C(=O)NCC(=O)N4CSC[C@H]4C#N)c3c2)[C@H]1C [Example 30, N-(2-((R)-4-Cyanothiazolidin-3-yl)-2-oxoethyl)-6-((2S,3R)-3-methoxy-2-methylazetidin-1-yl)quinoline-4-carboxamide] | <1 μL/min/1E6 | 0.00022 s⁻¹ | 5200000 M⁻¹ s⁻¹ | 0.042 nM | 7.2 μL/min/1E6 | < 3 µL/min/mg | 510 nM | 0.12 nM | 3.1 ×10⁻⁶ cm/s | 30 ×10⁻⁶ cm/s | 9.6 | > 1000 µM | 0.28 nM | – | 15 ×10⁻⁶ cm/s | – |
| N#C[C@@H]1CSCN1C(=O)CNC(=O)c1ccnc2ccc(N3CCOC4(CCOCC4)C3)cc12 [Example 99, (R)—N-(2-(4-cyanothiazolidin-3-yl)-2-oxoethyl)-6-(1,9-dioxa-4-azaspiro[5.5]undecan-4-yl)quinoline-4-carboxamide] | 1.9 μL/min/1E6 | 0.0002 s⁻¹ | 2100000 M⁻¹ s⁻¹ | 0.11 nM | 8.1 μL/min/1E6 | – | 1100 nM | 0.12 nM | 0.46 ×10⁻⁶ cm/s | 21 ×10⁻⁶ cm/s | 46 | – | – | 16 µL/min/mg | – | 800 µM (≈ 385 µg/mL) |
